Patent US20120028985A1, “COMBINATIONAL THERAPY FOR TREATING AUTOIMMUNE DISEASE” (4SC AG, priority 2008, published 2012)
Where “and” joins values, the source holds several entries; their conditions need not be identical. Equal values may be shown once.

Legend:
[1] = tested on: Beagle dogs; conditions: Beagle dogs, 13 weeks oral
Excerpt: The animals were randomly allocated to five test groups employing a pseudo-random body weight stratification procedure that yielded groups with approximately equal mean body weights. […] A special focus of the study was to study the influence of the combination treatment on liver toxicity.

[2] = tested on: Beagle dogs; test: 13-week repeat dose toxicity in Beagle dogs, combination with methotrexate: clinical biochemistry (ALAT, ASAT); type: in vivo; conditions: for ALAT, change as compared to the control group 1 / ASAT, change as compared to the control group 1: 25 mg Formula (II)/kg/day and/or 10/2.5 mg MTX/kg/week, p.o.
Description: For laboratory examinations blood samples were taken from the vena cephalica or vena saphena magna from animals fasted overnight. Serum samples were collected into tubes for biochemical tests. Clinical biochemistry parameters from venous blood were determined at the times listed below:
Prior to study start: all animals of a pool of 52 dogs […]
At the end of the recovery period: all 8 recovery animals included in this study
Clinical biochemistry parameters (e.g. bile acids, alanine aminotransferase=ALAT, alkaline phosphatise=aP, aspartate aminotransferase=ASAT, gamma-glutamyl-transferase=Gamma-GT, glutamate dehydrogenase=GLDH, creatine kinase=CK) were measured using KONELAB 30i instrument (Thermo Fisher Scientific, 63303 Dreieich, Germany) as U/L (unit/liter) serum.

[3] = Toxicokinetics of formula (II) and methotrexate after individual and concomitant administration to Beagle dogs; type: in vivo; conditions: for AUC(0-inf) / Cmax / half-life: mean
[4] = tested on: DBA1/J mice; test: Collagen Induced Arthritis in Mice, Arthritic Index (AI); type: in vivo; conditions: po once daily, MTX 2.5 mg/kg, Formula (II) 50 mg/kg; for Average Arthritic Index, Mean: group mean
Description: Collagen Induced Arthritis in Mice
Bovine Type II collagen solution is prepared by dissolving at 4 mg/ml in 0.01 M acetic acid at 4-8° C. with stirring overnight. Immunogen is prepared by emulsifying a 1:1 vol:vol combination of collagen solution and Complete Freund's Adjuvant (CFA) (M. tuberculosis H37Ra suspension: 4 mg/ml).
DBA1/J mice (male, 7-8 weeks) are weighed. The animals are anesthetized, injected subcutaneously into the shaved base of the tail with collagen/CFA (0.050 ml/mouse; 100 microgram/mouse collagen in CFA) using a 1 ml syringe fitted with a 25 G needle and returned to the cages.
After three weeks (21 d) the procedure is repeated, though now with incomplete Freund's adjuvant (IFA) instead of CFA.
Animals are observed for one week and macroscopic signs of arthritis are scored 3-times weekly (Monday, Wednesday, Friday: M, W, F). Each paw receives a score: • a) 0=no visible effects of arthritis; • b) 1=edema and/or erythema of 1 digit; • c) 2=edema and/or erythema of 2 digits; • d) 3=edema and/or erythema of more than 2 digits; • e) 4=severe arthritis of entire paw and digits.
Calculate Arthritic Index (AI) by addition of individual paw scores and record. (Maximum AI=16)
After one week, mice are allocated to groups (10 mice per group) to give similar mean AI values and similar ranges of individual AI values in each treatment group.
Dosing is started, PO (per oral) once daily for 14 days.
AI scores determined 3× weekly.

[5] = female, Beagle, dog, plasma, po, 10 mg/kg, Group 4 (+MTX), formula (II) 10 mg/kg, day 1, female Beagle dogs
[6] = female, Beagle, dog, plasma, po, 10 mg/kg, Group 4 (+MTX), formula (II) 10 mg/kg, week 13, female Beagle dogs
[7] = female, Beagle, dog, plasma, po, 25 mg/kg, Group 2, formula (II) 25 mg/kg alone, day 1, female Beagle dogs
[8] = female, Beagle, dog, plasma, po, 25 mg/kg, Group 2, formula (II) 25 mg/kg alone, week 13, female Beagle dogs
[9] = female, Beagle, dog, plasma, po, 25 mg/kg, Group 5 (+MTX), formula (II) 25 mg/kg, day 1, female Beagle dogs
[10] = female, Beagle, dog, plasma, po, 25 mg/kg, Group 5 (+MTX), formula (II) 25 mg/kg, week 13, female Beagle dogs
[11] = male, Beagle, dog, plasma, po, 10 mg/kg, Group 4 (+MTX), formula (II) 10 mg/kg, day 1, male Beagle dogs
[12] = male, Beagle, dog, plasma, po, 10 mg/kg, Group 4 (+MTX), formula (II) 10 mg/kg, week 13, male Beagle dogs
[13] = male, Beagle, dog, plasma, po, 25 mg/kg, Group 2, formula (II) 25 mg/kg alone, day 1, male Beagle dogs
[14] = male, Beagle, dog, plasma, po, 25 mg/kg, Group 2, formula (II) 25 mg/kg alone, week 13, male Beagle dogs
[15] = male, Beagle, dog, plasma, po, 25 mg/kg, Group 5 (+MTX), formula (II) 25 mg/kg, day 1, male Beagle dogs
[16] = male, Beagle, dog, plasma, po, 25 mg/kg, Group 5 (+MTX), formula (II) 25 mg/kg, week 13, male Beagle dogs

COc1cccc(-c2ccc(NC(=O)C3=C(C(=O)O)CCC3)c(F)c2)c1 [Formula (II)]
Influence on body weight, food and drinking water consumption and haematological parameters [1]: no influence
Changes in the biochemical parameters ([2]; Beagle dogs, 13 weeks oral, serum): slight increased enzyme activities of ALAT, ASAT and GLDH as well as slight increases of the bile acid concentration in serum
ALAT, change as compared to the control group 1 ([2]; Test day 37, females): None
ASAT, change as compared to the control group 1 ([2]; Test day 37, females): None
ALAT, change as compared to the control group 1 ([2]; Test day 37, males): none
ASAT, change as compared to the control group 1 ([2]; Test day 37, males): none
ALAT, change as compared to the control group 1 ([2]; Test day 93, females): None
ASAT, change as compared to the control group 1 ([2]; Test day 93, females): None
ALAT, change as compared to the control group 1 ([2]; Test day 93, males): None
ASAT, change as compared to the control group 1 ([2]; Test day 93, males): None
Toxicokinetic findings (plasma levels, interaction) ([3]; Beagle dogs, test day 1 and 85): clear dose response relationship
AUC(0-t) ([3]; female, Beagle, dog, plasma, po, 10 mg/kg): 598 µg·h/mL
AUC(0-inf) [3, 5]: 513 µg·h/mL
Cmax [3, 5]: 43000 ng/mL
half-life [3, 5]: 7.4 h
Cmax [3, 6]: 40500 ng/mL
half-life [3, 6]: 26.7 h
AUC(0-inf) [3, 7]: 773 µg·h/mL
Cmax [3, 7]: 56300 ng/mL
half-life [3, 7]: 8.6 h
AUC(0-inf) [3, 8]: 1010 µg·h/mL
Cmax [3, 8]: 66600 ng/mL
half-life [3, 8]: 11.1 h
AUC(0-inf) [3, 9]: 413 µg·h/mL
Cmax [3, 9]: 33100 ng/mL
half-life [3, 9]: 7.6 h
AUC(0-inf) [3, 10]: 1190 µg·h/mL
Cmax [3, 10]: 76300 ng/mL
half-life [3, 10]: 8.1 h
AUC(0-inf) [3, 11]: 322 µg·h/mL
Cmax [3, 11]: 30300 ng/mL
half-life [3, 11]: 6.3 h
AUC(0-inf) [3, 12]: 371 µg·h/mL
Cmax [3, 12]: 35700 ng/mL
half-life [3, 12]: 6.3 h
AUC(0-inf) [3, 13]: 289 µg·h/mL
Cmax [3, 13]: 22700 ng/mL
half-life [3, 13]: 7.8 h
AUC(0-inf) [3, 14]: 601 µg·h/mL
Cmax [3, 14]: 56900 ng/mL
half-life [3, 14]: 6.1 h
AUC(0-inf) [3, 15]: 858 µg·h/mL
Cmax [3, 15]: 60000 ng/mL
half-life [3, 15]: 8.4 h
AUC(0-inf) [3, 16]: 659 µg·h/mL
Cmax [3, 16]: 53600 ng/mL
half-life [3, 16]: 7.9 h
Average Arthritic Index, Mean ([4]; study day 22): 0
Arthritic Index (individual mouse) ([4]; study day 22): 0
Average Arthritic Index, Mean ([4]; study day 23): 0
Arthritic Index (individual mouse) ([4]; study day 23): 0
Average Arthritic Index, Mean ([4]; study day 24): 0
Arthritic Index (individual mouse) ([4]; study day 24): 0
Average Arthritic Index, Mean ([4]; study day 25): 0
Arthritic Index (individual mouse) ([4]; study day 25): 0
Average Arthritic Index, Mean ([4]; study day 26): 0
Arthritic Index (individual mouse) ([4]; study day 26): 0
Average Arthritic Index, Mean ([4]; study day 27): 0
Arthritic Index (individual mouse) ([4]; study day 27): 0
Average Arthritic Index, Mean ([4]; study day 28): 0.7
Arthritic Index (individual mouse) ([4]; study day 28): 1 (3×) and 0 (4×) and 2
Average Arthritic Index, Mean ([4]; study day 30): 0.9
Arthritic Index (individual mouse) ([4]; study day 30): 1 (4×) and 0 (3×) and 2 and 3
Average Arthritic Index, Mean ([4]; study day 31): 2.2
Arthritic Index (individual mouse) ([4]; study day 31): 2 (2×) and 3 (3×) and 1 (3×) and 4
Average Arthritic Index, Mean ([4]; study day 32): 3.6
Average Arthritic Index, Mean ([4]; study day 33): 5.2
Arthritic Index (individual mouse) ([4]; study day 33): 6 (2×) and 11 and 2 (2×) and 5 (3×) and 8
Average Arthritic Index, Mean ([4]; study day 35): 5.9
Arthritic Index (individual mouse) ([4]; study day 35): 5 (2×) and 12 and 4 (3×) and 3 and 8
Average Arthritic Index, Mean ([4]; study day 37): 6.9
Average Arthritic Index, Mean ([4]; study day 40): 6.9
Average Arthritic Index, Mean ([4]; study day 42): 7.0
Average Arthritic Index, Mean ([4]; study day 44): 7.1
Average Arthritic Index, Mean ([4]; study day 47): 7.6
